Data taken from patent publication US20260092061A1, “COMPOUNDS FOR TARGETED PROTEIN DEGRADATION” (Amphista Therapeutics Limited, priority 2022, published 2026).
Read-outs that look alike come from different tables or passages of the source.

Experiments:
Format in all cases: cell-based
BRD9 [1] = biological target: T1, BRD9 (Homo sapiens, UniProt Q9H8M2); test: BRD9 degradation, HiBiT-BRD9 KI HEK293 (LgBiT) cells, NanoGlo Lytic Endpoint assay (Assay Protocol 1); conditions: for Dmax at 1 µM: HEK293; for DC50: 6 h of treatment, read-out: Assay 1 DC50
T1 sequence (Q9H8M2 1-597): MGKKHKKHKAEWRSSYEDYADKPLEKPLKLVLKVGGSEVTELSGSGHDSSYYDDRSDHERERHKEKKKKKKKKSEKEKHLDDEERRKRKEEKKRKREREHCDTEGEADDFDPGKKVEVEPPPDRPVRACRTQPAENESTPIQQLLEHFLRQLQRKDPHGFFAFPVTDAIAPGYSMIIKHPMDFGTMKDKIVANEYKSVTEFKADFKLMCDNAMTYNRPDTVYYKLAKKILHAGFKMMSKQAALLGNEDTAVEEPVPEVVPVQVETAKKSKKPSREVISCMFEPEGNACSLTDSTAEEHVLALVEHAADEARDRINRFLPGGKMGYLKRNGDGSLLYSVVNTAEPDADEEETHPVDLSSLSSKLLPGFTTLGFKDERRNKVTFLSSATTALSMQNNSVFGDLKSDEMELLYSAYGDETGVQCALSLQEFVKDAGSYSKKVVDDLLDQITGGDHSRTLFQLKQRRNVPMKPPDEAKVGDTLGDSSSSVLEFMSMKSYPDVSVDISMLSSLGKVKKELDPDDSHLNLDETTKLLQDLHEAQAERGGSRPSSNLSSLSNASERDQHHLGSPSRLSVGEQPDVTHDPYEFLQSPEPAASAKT
Method in brief: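 HiBiT-tagged BRD9 knock-in HEK293 (LgBiT) cells exposed to compounds for 6 h at 37 °C, 5% CO2. Residual BRD9 measured by HiBiT lytic luminescence. % BRD9 remaining normalised to DMSO-treated cells (high) and no-cell wells (low).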

BRD7 = biological target: T2, BRD7 (Homo sapiens, UniProt Q9NPI1); test: BRD7 degradation, HiBiT-BRD7 KI HEK293 (LgBiT) cells, NanoGlo Lytic Endpoint assay (Assay Protocol 1); conditions: HEK293; Table 3; assay 1; 1 μM compound at 5 h of treatment
T2 construct: HiBiT-BRD7 KI HEK293 (LgBiT) Cells (Promega CS3023410); host or cells: HEK293 (LgBiT), HiBiT knock-in at the BRD7 locus
T2 sequence (Q9NPI1 1-651): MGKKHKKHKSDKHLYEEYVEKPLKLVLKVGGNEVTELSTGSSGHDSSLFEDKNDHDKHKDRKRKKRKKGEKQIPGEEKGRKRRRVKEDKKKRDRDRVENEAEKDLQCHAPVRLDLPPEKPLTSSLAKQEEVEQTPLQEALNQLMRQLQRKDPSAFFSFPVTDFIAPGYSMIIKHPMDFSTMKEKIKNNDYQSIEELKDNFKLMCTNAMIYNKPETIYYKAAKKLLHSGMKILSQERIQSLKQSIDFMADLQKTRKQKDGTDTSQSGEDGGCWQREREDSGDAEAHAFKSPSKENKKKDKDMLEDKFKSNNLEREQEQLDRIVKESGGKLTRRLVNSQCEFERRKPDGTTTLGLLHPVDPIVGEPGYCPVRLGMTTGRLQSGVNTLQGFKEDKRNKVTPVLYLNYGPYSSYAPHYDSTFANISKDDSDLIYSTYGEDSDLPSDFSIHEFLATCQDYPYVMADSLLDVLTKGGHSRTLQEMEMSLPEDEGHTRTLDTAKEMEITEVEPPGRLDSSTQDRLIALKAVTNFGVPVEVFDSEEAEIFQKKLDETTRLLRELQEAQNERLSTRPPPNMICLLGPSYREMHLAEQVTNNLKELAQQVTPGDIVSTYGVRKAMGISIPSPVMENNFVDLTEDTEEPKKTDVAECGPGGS
Protocol: HiBiT-BRD9 KI HEK293 (LgBiT) Cells (Promega CS3023412) were seeded at 8000 cells per well (38 μL) in sterile white bottom 384 well plates (Invitrogen 164610 or Greiner 781080) and incubated overnight at 37° C. with 5% CO2. The next day, compounds were prepared at 1000× final concentration in DMSO and diluted 1:100 in media (DMEM PAN Biotech P04-03550+10% FBS ATCC 302025). […] The lytic buffer was equilibrated to room temperature for 10-15 min before lytic reagent was prepared by adding substrate (1:50) and LgBit protein (1:100) in lytic buffer. 40 μL lytic reagent mix was added to each well of the cel plate and plates were centrifuged briefly at ˜50g. Plates were incubated with shaking (350 RPM) for 12-24 min before reading using the LUM plus module of a BMG Pherastar FSX. Data was analysed using Dotmatics software and % BRD9 remaining was calculated by normalisation to average data from high and low control wells (DMSO treated cels and no cells respectively).
BRD7 degradation was determined in line with the procedure as outlined above for BRD9, with the exception that HiBiT-BRD7 KI HEK293 (LgBiT) Cells (Promega CS3023410) were seeded at 8000 cells per well (CPW) (36 uL) in sterile white bottom 384 well plates (Invitrogen 164610 or Greiner 781080) and incubated overnight at 37° C. with 5% CO2.

BRD9 [2] = biological target: T1, BRD9; test: BRD9 degradation, HiBiT-BRD9 KI HEK293 (LgBiT) cells, NanoGlo Lytic Endpoint assay (Assay Protocol 1); conditions: Table 3; assay 1; 5 h of treatment
BRD4 = biological target: T3, BRD4 (Homo sapiens, UniProt O60885); test: BRD4 degradation, HiBiT-BRD4 HEK293 CRISPR CPM cells, NanoGlo Lytic Endpoint assay (Assay Protocol 1); conditions: Table 3, assay 1; for Dmax: HEK293, 1 μM compound at 5 h of treatment; for DC50: 5 h of treatment
T3 construct: HiBiT-BRD4 HEK293 CRISPR CPM (Promega CS302312); host or cells: HEK293, CRISPR-edited (HiBiT at the BRD4 locus)

[3] = Table 2, BRD9 degradation, Assay Protocol 1, 1 μM compound at 6 h of treatment, read-out: Assay 1 Dmax
[4] = Table 3, assay 1, 1 μM compound at 5 h of treatment, read-out: BRD9 Dmax (%)
[5] = Table 2, BRD9 degradation, Assay Protocol 1

Row | Structure (SMILES) | Dmax at 1 µM (BRD9 [1]; [3]) [%] | Dmax at 1 µM (BRD9 [1]; [4]) [%] | DC50 (BRD9 [1]; [5]) [nM] | Dmax at 1 µM (BRD7) [%] | DC50 (BRD9 [2]) [nM] | Dmax (BRD4) [%] | DC50 (BRD4) [nM]
1 | COc1cc(-c2cn(C)c(=O)c(C)c2C)cc(OC)c1CN1CCN(Cc2cccc3c2CCN(C(=O)/C(C#N)=C/c2ncc(C)s2)C3C)CC1 (mixture of isomers) [Compound A29] | 40 to 70 | 40 to 70 | 1.25 to 10 | 25 to 40 | 1.25 to 10 | < 25 | –
2 | COc1cc(-c2cc(C)c(=O)n(C)c2)cc(OC)c1CN1CCN(Cc2cccc3c2CCN(C(=O)/C(C#N)=C/C2(F)CC2)C3C)CC1 (mixture of isomers) [Compound A61, (E/Z)-2-(5-((4-(4-(1,5-dimethyl-6-oxo-1,6-dihydropyridin-3-yl)-2,6-dimethoxybenzyl)piperazin-1-yl)methyl)-1-methyl-1,2,3,4-tetrahydroisoquinoline-2-carbonyl)-3-(1-fluorocyclopropyl) acrylonitrile] | > 75 | > 75 | < 1.25 | < 25 | < 1.25 | 40 to 70 | 25 to 1000
3 | COc1cc(-c2cc(C)c(=O)n(C)c2)cc(OC)c1CN1CCN(Cc2cccc3c2CCN(C(=O)/C(C#N)=C/c2cccc(Br)n2)C3C)CC1 (mixture of isomers) [Compound A60] | 40 to 70 | 40 to 70 | < 1.25 | < 25 | < 1.25 | 40 to 70 | 25 to 1000
